Structures are written as SMILES. Values joined by “and” are separate entries in the source; they are usually repeats but may differ in a detail not shown here. Equal values may be shown once. “Also recorded” adds a separate entry of the source. Read-outs that look alike come from different tables or passages of the source. Bounds are passed on as bounds.

The term IC50 denotes the concentration that gives 50% inhibition. A word on the cell viability: it is a read-out of living cells in per cent, often relative to untreated cells. Read a high cell viability as better survival.

In data set [1] the test system is PC3 human prostate carcinoma. Description: In vitro antitumor activity of terpenes against PC3 (seven day exposure). The following applies: for IC50: Homo sapiens, 168 h, PC3, seven day exposure; for activity compared with farnesol (standard): FIGS. 7-9, relative to farnesol; for activity against the human prostate cancer cells: FIGS. 1-6, growth as % of untreated control. Type of data set: cell-based. As for the experimental part:
A human prostate carcinoma cell line, PC3, was obtained from the American Tissue Culture Collection, Accession No. CRL 1435. The PC3 cells were cultured in RPMI 1640 medium enriched with 10% fetal calf serum (FCS). The medium and the FCS are both available from GIBCO BRL Life Technologies, Inc., 8400 Helgeman Lane, Gaithersburg, Md. 20877.
Terpenes were exposed to the PC3 cells as follows. On day 0, seed PC3 cells at about 1,000 cells per well were placed in each well of a 96-well tissue culture plate along with […] (ml) of culture medium. On day 1, various concentrations of each of the selected terpenes were added. A serial dilution of each terpene was made in dimethyl sulfoxide (DMSO). All of the initial concentrations were about 200 times the desired concentration. Each dose was further diluted 100 times with culture medium. 0.1 ml of each dose was added per well to the tissue culture plate. The plates were incubated at 37° Celsius (C) under 5% carbon dioxide (CO2) for seven days. The results are depicted graphically in FIGS. 1-9 and some of the concentrations which inhibited cell growth to about 50% of the control growth (IC50) are shown in Table 1.

Data set [2] has as its system U87 glioblastoma. Description: Effect of limonene on tumor cell proliferation, U87. The following applies: Homo sapiens, 96 h; RPMI 1640; three to four days of continuous treatment. It counts as cell-based. Here is the method: (§1) Limonene (Sigma) was evaluated for its effect on proliferation of various tumor cell lines. The cell lines included U87 and A172 (both are glioblastomas), HOS (a low ras osteosarcoma), AD5 (a high ras osteosarcoma), and HT29 (a high ras colon carcinoma). An activated or high ras means that the ras oncogene has mutated to a form which can transform normal cells to malignant cells. The glioblastoma cells were grown in RPMI 1640 culture medium and the other three cell lines were grown in Dulbecco's Modified Eagle's Medium (DMEM, available from GIBCO).
(§2) Limonene was added to the growth medium, which was supplemented with 10% FCS, and incubated at 37° C. for 24 hours. The medium was added to human tumor cells plated the previous day in 60 millimeter (mm) tissue culture (TC) dishes. After three to four days of continuous treatment, the cells were detached by trypsinization and counted using a hemocytometer (Hy-Lite Counting Chamber from Fisher Scientific, 711 Forbes Ave., Pittsburgh, Pa. 15219-4785). Cell viability was determined by a trypin blue exclusion method as described in detail in the manufacturer's instructions.

Data set [3] relates to A172 glioblastoma. As to the kind of experiment: Effect of limonene on tumor cell proliferation, A172. The following applies: Homo sapiens, A 172, 96 h; RPMI 1640; three to four days of continuous treatment. Type of data set: cell-based. Here is the method:
as §1, §2

The subject of data set [4] is HOS osteosarcoma (low ras). As to the kind of experiment: Effect of limonene on tumor cell proliferation, HOS. Type of data set: cell-based. The following applies: Homo sapiens, 96 h; DMEM; three to four days of continuous treatment. As for the experimental part:
as §1, §2

The subject of data set [5] is AD5 osteosarcoma (high ras). Description: Effect of limonene on tumor cell proliferation, AD5. It counts as cell-based. The following applies: Homo sapiens, 96 h; DMEM; three to four days of continuous treatment. As for the experimental part: as §1, §2
Data set [6] deals with HT29 colon carcinoma (high ras). Description: Effect of limonene on tumor cell proliferation, HT29. Type of data set: cell-based. The following applies: Homo sapiens, HT-29, 96 h; DMEM; three to four days of continuous treatment. Here is the method:
as §1, §2

Data set [7] deals with tumor cell lines U87, A172, HOS, AD5, HT29. Description: Cell viability of surviving cells in the proliferation test (exclusion method). The following applies: of the approximately 50% of cells which survived (at IC50). Type of data set: cell-based, human. As for the experimental part: as §2
The test system of data set [8] is AD5 human osteosarcoma cell line. As to the kind of experiment: Effect of limonene on radiation sensitivity of tumor cells. It counts as cell-based. The following applies: 3 mM limonene; FIG. 10. Here is the method: An activated ras oncogene makes tumor cells resistant to radiation therapy. The AD5 human osteosarcoma cell line is an example of such a cell line resistant to radiation by virtue of an activated ras oncogene. AD5 cells were cultivated as described in Example 2. Limonene was prepared in various concentrations also as described in Example 2. […] This dose refers to the dose that reduces the number of surviving cells to about 37% of the control cells. Gy (gray) is an international metric unit for an absorbed dose of radiation. One Gy equals one Joule/kg.

In data set [9] the test system is prostate tumor cells. As to the kind of experiment: Apoptosis and nuclear fragmentation (DNA ladder gel). Type of data set: cell-based. The following applies: for DNA ladder indicative of apoptosis: 2% agarose minigel. As for the experimental part: The invention examined the effect on prostate tumor cells of treatment with limonene, farnesol and phytol. […] The classic signature of apoptosis is the cleavage of nuclear DNA into nucleosomal subunits. On gels, this gives rise to the appearance of a ladder as nucleosomal units are sequentially cleaved from the DNA.
After drug exposure, cells were lysed and the high molecular DNA removed by centrifugation. The aqueous phase was treated with proteinase K to digest proteins. After a phenol/chloroform extraction, the DNA was precipitated with salt and ethanol. The pellet was dissolved in deionized water and treated with 500 μg/ml RNase A. The DNA was run on a 2% agarose minigel.

Data set [10] has as its system PC3 human prostate carcinoma. As to the kind of experiment: In vivo antitumor activity of d-limonene against PC3 in nude mice. The following applies: gavage once daily Monday through Friday for two weeks. Also noted: species or system nude mice (human PC3 tumor). As for the experimental part:
(§3) Nude mice were obtained from Cancer Research Facility in Frederick, Md. The strain name is Athymic MCR-nude. PC3 cells were transplanted into both the right and left flanks of nude mice and allowed to grow until the tumor size reached the volume of approximately 200-300 cubic mm (mm^3). At this time, five mice bearing ten tumors total were allocated to each group.
(§4) The drug or vehicle alone were administered by gavage once daily Monday through Friday for two weeks. The control group received olive oil at a dose of 0.1 cubic centimeters (cc) per ten grams (gm) of body weight. […] Both body weight and tumor volume were measured daily.

A short description of data set [11]: Tolerability and body weight of nude mice treated with limonene. Type of data set: in vivo. As for the experimental part:
as §3, §4

The conditions of data set [12]: to compounds having terminal hydroxy groups; cited from earlier work.
The subject of data set [13] is PC3 human prostate carcinoma. As to the kind of experiment: In vivo antitumor activity of phytol against PC3 in nude mice. Also noted: species or system nude mice (human PC3 tumor). Here is the method:
as §3
(§5) The drug or vehicle alone were administered by gavage once daily Monday through Friday for two weeks. The control group received olive oil at a dose of 0.1 cubic centimeters (cc) per ten grams (gm) of body weight. Other groups received the same volume of olive oil with limonene added to give a daily dose of limonene of 0.1, 1.0 or 2.0 […]. Both body weight and tumor volume were measured daily.
(§6) The experimental procedure of Example 5 was followed except that phytol was used in place of limonene. […] The results are depicted in FIG. 13 which plots the percent change of tumor volume versus the number of days after inoculation of the nude mice with […] tumor cells.

Details of data set [14]: species or system nude mice. The following applies: mouse, in vivo. As for the experimental part:
as §3, §5, §6

For `C=C(C)[C@H]1CC=C(C)CC1` [limonene, d-Limonene], the 50% inhibitory concentration (IC50) in [1] was 217 µM and 30 µg/mL; in data set [2], 2100 ± 400 µM; in [3] it was 1500 ± 500 µM; in data set [4], 3000 ± 300 µM; in data set [5], 4800 ± 600 µM; in [6], 4500 ± 500 µM. The molecule further gave a cell viability in data set [7] of over 95%. The “effect on radiation dose response curve” value in data set [8] was “alters both the shoulder and the dose (Do) of the radiation dose response curve”. Further, in data set [9], the “mode of cell death” value is listed as “apoptosis, not necrosis”. The “tumor cell death (not cytostasis)” value in data set [9] is listed as “tumor cell death (not cytostasis) was observed”. In data set [9], the “DNA ladder indicative of apoptosis” value is recorded as “a classic DNA ladder indicative of apoptosis has been noted; also recorded: classic DNA ladders”. In addition, the “rate of tumor growth vs control group” value in data set [10] (0.1 gm/kg) is recorded as “the same”; in data set [10] (1.0 gm/kg), “the same”; in data set [10] (2.0 gm/kg), “approximately half of that in the control group”. The tolerability entry in [11] (gavage, two weeks, up to 2.0 gm/kg) is recorded as “appeared to tolerate the drug well”. Further, in data set [11] (mouse, in vivo), the loss in weight entry is reported as “not a statistically significant loss in weight”. Also, the metabolism in vivo entry in data set [12] is “rapidly metabolized”.

Take `CC(C)c1ccc(C=O)cc1` [4-isopropylbenzaldehyde]: the “activity compared with farnesol (standard)” value in data set [1] is listed as “less active”.

With `CC(C)=CCC/C(C)=C/CC/C(C)=C/CO` [farnesol, trans, trans-farnesol], in data set [1], the “activity against the human prostate cancer cells” value is listed as “favorable activity”; the IC50 was 85.6 µM and 19 µg/mL. In [9], the “mode of cell death” value is “apoptosis, not necrosis”; the “tumor cell death (not cytostasis)” value was “tumor cell death (not cytostasis) was observed”; the “DNA ladder indicative of apoptosis” value is reported as “a classic DNA ladder indicative of apoptosis has been noted; also recorded: classic DNA ladders”.

On to `CC(C)=CCC/C(C)=C\CO` [nerol], for which the “activity compared with farnesol (standard)” value in [1] is “less active”.

`CC(C)=CCC/C(C)=C/CC/C(C)=C/CC/C(C)=C/CO` [geranylgeraniol]: in [1], the “activity against the human prostate cancer cells” value is reported as “favorable activity”; the concentration for half-maximal inhibition (IC50) is 10.5 µM and 3 µg/mL.

With `CC(C)c1ccc(CO)cc1` [4-isopropylbenzylalcohol], the “activity compared with farnesol (standard)” value in data set [1] is given as “less active”.

With `CC(C)=CCCC(C)=CC=O` [citral], in [1], the “activity against the human prostate cancer cells” value is listed as “favorable activity”; the IC50 is 17 µM and 3 µg/mL.

For `C=C(C)C1CC=C(C=NO)CC1` (stereo not drawn) [perillartine], the “activity compared with farnesol (standard)” value in data set [1] is listed as “less active”.

For the molecule `CC(C)=CCCC(C)CC(=O)O` (stereo not drawn) [citronellic acid], the “activity compared with farnesol (standard)” value in [1] is “less active”.

For the molecule `CC(C)=CCCC(C)CC=O` (stereo not drawn) [citronellal], the “activity compared with farnesol (standard)” value in data set [1] is on record as “less active”.

As for `CC(C)=CCC[C@@H](C)CCO` [d-citronellol], the “activity compared with farnesol (standard)” value in [1] was “less active”.

On to `C/C(=C\CO)CCC[C@H](C)CCC[C@H](C)CCCC(C)C` [phytol], for which, in [1], the “activity against the human prostate cancer cells” value is given as “favorable activity”; the concentration for half-maximal inhibition (IC50) is 34.3 µM and 10 µg/mL. In [9], the “mode of cell death” value was “apoptosis, not necrosis”; the “tumor cell death (not cytostasis)” value is reported as “tumor cell death (not cytostasis) was observed”; the “DNA ladder indicative of apoptosis” value is “a classic DNA ladder indicative of apoptosis has been noted”. For the same molecule, the “tumor production during the treatment period” value in [13] (during the treatment period) is given as “negligible tumor production”. Moreover, in data set [13] (phytol by procedure of Example 5), the “tumor volume as compared to the control animals” value is reported as “lower tumor volume”. Besides, the tolerability entry in data set [14] is reported as “tolerated the phytol well”.

Regarding `CC(C)c1ccc(C(=O)O)cc1` [4-isopropylbenzoic acid], the “activity compared with farnesol (standard)” value in data set [1] is listed as “less active”.

On to `C=CC(C)CCCC(C)(C)O` (stereo not drawn) [dihydromyrcenol], for which, in data set [1], the “activity compared with farnesol (standard)” value was “less active”.

Turning to `CC(C)=CCC/C(C)=C/CC/C(C)=C/C(=O)O` [farnesylic acid], the “activity against the human prostate cancer cells” value in [1] is recorded as “favorable activity”.

Consider `C=CC(=C)CCC=C(C)C` [beta-myrcene], for which, in data set [1], the IC50 is 147 µM and 21 µg/mL.

As to `C=CC(C)(O)CCC=C(C)CCC=C(C)C` (stereo not drawn) [nerolidol], in data set [1], the “activity against the human prostate cancer cells” value is on record as “favorable activity”; the 50% inhibitory concentration (IC50) was 90.1 µM and 20 µg/mL.

For the molecule `O=C(O)CCCCCCCCCCCCCCCO` [16-hydroxyhexadecanoic acid], in [1], the “activity compared with farnesol (standard)” value is “less active”.

Source of the values: patent US5602184A, “Monoterpenes, sesquiterpenes and diterpenes as cancer therapy” (priority 1993, dated 1997).
